Here are results for 14 compounds from patent US9951061B2, “CaMKII inhibitors and uses thereof” (Allosteros Therapeutics, Inc., priority 2013, dated 2018).

In this assay the target is T1, CaMKIIδ (Homo sapiens, UniProt Q13557).
T1 construct: His/Gln tag (C)
T1 sequence (Q13557 whole entry, looked up): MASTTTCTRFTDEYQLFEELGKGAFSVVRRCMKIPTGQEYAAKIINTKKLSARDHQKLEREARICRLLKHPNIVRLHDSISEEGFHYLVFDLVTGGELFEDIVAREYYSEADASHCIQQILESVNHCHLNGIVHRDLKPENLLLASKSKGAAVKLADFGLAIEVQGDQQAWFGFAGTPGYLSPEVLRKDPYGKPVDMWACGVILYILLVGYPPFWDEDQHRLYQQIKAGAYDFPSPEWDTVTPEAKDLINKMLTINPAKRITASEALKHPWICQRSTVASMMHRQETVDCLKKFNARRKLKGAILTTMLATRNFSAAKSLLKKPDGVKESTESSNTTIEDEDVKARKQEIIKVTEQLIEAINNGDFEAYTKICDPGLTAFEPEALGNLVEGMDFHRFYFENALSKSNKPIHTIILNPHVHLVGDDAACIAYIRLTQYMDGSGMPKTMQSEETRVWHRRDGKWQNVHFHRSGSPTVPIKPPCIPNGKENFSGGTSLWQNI
The assay is described as follows: In vitro CaMKIIδ activity (inhibition) assay, coupled assay measuring ADP released. In kind it is biochemical. The following applies: full length C-terminal His/Gln tagged CaMKIIδ construct, 16 nM; peptide substrate AC3; 25° C. The protocol:
An exemplary procedure for the in vitro CaMKIIδ inhibition assay, which can be used to determine the inhibitory action of compounds of the invention toward CaMKII, follows. The procedure is taken from Chao L H, et al., (2010) Nat Struct Mol Biol. 17(3): 264-272, which is incorporated herein by reference in its entirety.
The inhibition of CaMKII activity was evaluated using a coupled assay measuring ADP released following ATP hydrolysis and phosphor-transfer to the peptide substrate AC3 (KKALHRQETVDAL; SEQ ID NO: 1) (1). A full length, C-terminal His/Gln tagged CaMKIIδ construct was used (sequence in Table 2 below).
Compounds were added in 5 uL volume to wells in UV transparent 96-well plates (½ area well size). The final compound concentrations tested ranged from 0.5 nM to 10 uM). Assays were performed in duplicate. CaMKIIδ is added to at a final concentration of 16 nM to a mixture containing 100 mM Tris (pH 7.5), 150 mM KCl, 0.27 mM EGTA, 1.3 mM PEP, 0.2 mg/ml AC3, 6.9% (v/v) PK/LDH mixture (Sigma P0294), 0.38 mM NADH and kept on ice. 72 uL of the enzyme mixture was added to the wells containing compounds and the plate was shaken briefly and kept on ice. The assay was initiated by adding 23 uL of a mixture containing 100 mM Tris (pH 7.5), 150 mM KCl, 1.7 mM CaCl2, 48 mM MgCl2, 0.35 mM ATP and 6.7 ug/mL calmodulin. The rate of ADP released was measured as the rate of absorbance decrease at […] at 25° C. and plotted against the log of the compound concentration (FIG. 1). IC50 data were fitted using GraphPad Prism software.
What is called IC50 is the concentration needed to halve the response being measured. For the compound `c1cc(-c2ccnc3[nH]c4ccccc4c23)cc(-n2ccnc2)c1` [Compound I-2, 4-(3-(1H-imidazol-1-yl)phenyl)-9H-pyrido[2,3-b]indole], the half-maximal inhibitory concentration (IC50) is at least 1000 nM.

In the case of `Cc1ccc2[nH]c3nccc(-c4cccc(NCCN)c4)c3c2c1` [Compound I-13, N1-(3-(6-methyl-9H-pyrido[2,3-b]indol-4-yl)phenyl)ethane-1,2-diamine], the half-inhibitory concentration (IC50) was at most 50 nM.

For `NCCNc1cccc(-c2ccnc3[nH]c4ccc(Cl)cc4c23)c1` [Compound I-14, N1-(3-(6-chloro-9H-pyrido[2,3-b]indol-4-yl)phenyl)ethane-1,2-diamine], the IC50 is at most 50 nM.

With `c1cc(-c2ccnc3[nH]c4ccccc4c23)cc(N2CCNCC2)c1` [Compound I-1, 4-(3-(piperazin-1-yl)phenyl)-9H-pyrido[2,3-b]indole], the IC50 fell in the range of 50 to 250 nM.

On to `N=C(N)NCc1cccc(-c2ccnc3[nH]c4ccccc4c23)c1` [Compound I-5, 1-(3-(9H-pyrido[2,3-b]indol-4-yl)benzyl)guanidine], for which the IC50 fell in the range of 250 to 1000 nM.

In the case of `Nc1cccc(-c2ccnc3[nH]c4ccccc4c23)c1` [Compound I-6, 3-(9H-pyrido[2,3-b]indol-4-yl)aniline], the IC50 was 50 to 250 nM.

On to `Cc1ccc2c(c1)[nH]c1nccc(-c3cccc(NCCN)c3)c12` [Compound I-11], for which the IC50 was at most 50 nM.

As to `N=C(N)Nc1cccc(-c2ccnc3[nH]c4ccccc4c23)c1` [Compound I-4, 1-(3-(9H-pyrido[2,3-b]indol-4-yl)phenyl)guanidine], the IC50 was 50 to 250 nM.

Regarding `NCCNc1cccc(-c2ccnc3[nH]c4ccccc4c23)c1` [Compound I-7, N1-(3-(9H-pyrido[2,3-b]indol-4-yl)phenyl)ethane-1,2-diamine], the IC50 was at most 50 nM.

In the case of `NCCCOc1cccc(-c2ccnc3[nH]c4ccccc4c23)c1` [Compound I-10, 3-(3-(9H-pyrido[2,3-b]indol-4-yl)phenoxy)propan-1-amine], the IC50 was at most 50 nM.

With `COc1ccc2c(c1)[nH]c1nccc(-c3cccc(NCCN)c3)c12` [Compound I-12, N1-(3-(7-methoxy-9H-pyrido[2,3-b]indol-4-yl)phenyl)ethane-1,2-diamine], the half-maximal inhibitory concentration (IC50) is at most 50 nM.

As to `NCc1cccc(-c2ccnc3[nH]c4ccccc4c23)c1` [Compound I-3, (3-(9H-pyrido[2,3-b]indol-4-yl)phenyl)methanamine], the concentration for half-maximal inhibition (IC50) was at least 1000 nM.

On to `NCCCNc1cccc(-c2ccnc3[nH]c4ccccc4c23)c1` [Compound I-8, N1-(3-(9H-pyrido[2,3-b]indol-4-yl)phenyl)propane-1,3-diamine], for which the IC50 is at most 50 nM.

For the compound `NCCOc1cccc(-c2ccnc3[nH]c4ccccc4c23)c1` [Compound I-9, 2-(3-(9H-pyrido[2,3-b]indol-4-yl)phenoxy)ethanamine], the half-maximal inhibitory concentration (IC50) is at most 50 nM.
